Experimental data: patent publication US4193997A, “Thieno[2,3-c] and [3,2-c]pyridines, process for their preparation and therapeutic applications thereof” (Parcor, priority 1977, dated 1980)

Tests used:
[1] = test system: A.D.P.-induced blood-platelet aggregation; experiment: A.D.P.-induced blood-platelet aggregation after oral treatment of rats; type: in vivo, Wistar rats; conditions: Rattus norvegicus, 100 mg/kg oral, 3 hrs after treatment, 10 μM A.D.P. solution, read-out: Percent inhibition of blood-platelet aggregation, A.D.P.
Experimental: (§1) Blood is taken from the jugular vein of Wistar rats. From this citrated blood, and after centrifugation, a plasma containing 600,000±20,000 blood-platelets per mm 3 is reconstituted, which plasma is used in all aggregation determinations.
(§2) 0.4 ml plasma is placed in a siliconized tube provided with a magnet bar which is also siliconized. The tube is introduced into an aggregometer connected to an apparatus which records the optical density variations. When light transmission reaches a stable value, 0.5 ml of a solution containing 10 μM A.D.P. (adenosine diphosphate) is introduced into the tube.
Blood-platelet aggregation then induces an increase of light transmission, followed by a decrease subsequent to the disaggregation stage.
The maximal optical density variation thus determined characterizes the extent of the aggregation.
(§3) Different groups of 20 rats each are used. Each group is orally administered a test derivative, at a dosage of 100 mg/kg. The results obtained during both tests are reported in following Table I which indicates the percent inhibition of blood-platelet aggregation obtained with respect to the reference group, 3 hrs after treatment.

[2] = test system: ovalbumin-induced systemic edema; experiment: Ovalbumin-induced systemic edema method; type: in vivo; conditions: rats, 100 mg/kg oral one hour before and with ovalbumin
Experimental: Rats are administered a simultaneous intraperitoneal injection of 1 ml ovalbumin and 0.5 ml of a 1% aqueous Evans Blue solution. The animals of the treated group are additionally orally administered 100 mg/kg of the test derivative, one hour prior to ovalbumin administration and then simultaneously with said ovalbumin administration. The intensity of the phenomenon thus induced is rated according to a scale from 1 to 5, according to the progress of the inflammatory syndrome. The determinations are effected after 2 hours and after 3 hours. Thus are determined the mean intensity of the edema and the percent decrease of the edema reaction.

[3] = test system: mouse; experiment: Antalgic action, mechanical stimulation method according to Haffner; type: in vivo; conditions: 100 mg/kg oral
Experimental: (a) Mechanical stimulation method according to Haffner (Deutsch. Wish., 1959, 55, 731-733). This method comprises placing a pressure forceps at the base of the tail of a mouse and recording the number of bites self-inflicted by the animal in its endeavour to remove the forceps. The decrease of the number of bites prior and subsequent to oral administration of the test compound at a dosage of 100 mg/kg provides a measure of the antalgic activity of the derivatives of this invention.

[4] = test system: carrageenin-induced edema; experiment: Localized carrageenin-induced edema method; type: in vivo; conditions: rats, 100 mg/kg oral one hour before, with, and 1 and 2.5 hours after carrageenin
Experimental: 0.1 ml of a 1% carrageenin solution is injected at time O in the metatarsal flexor muscles of the right hind limb of rats.
The animals of the treated group are additionally orally administered 100 mg/kg of the test derivative, respectively one hour prior to, and then simultaneously with the phlogogenic agent, and then one hour and 2.5 hours thereafter. The determinations effected with a ROCH micrometer at times 0, 1 hr, 2 hrs, 3 hrs and 5 hrs after carrageenin administration make it possible to determine the percent anti-inflammatory activity, as a function of time.

[5] = test system: mice; experiment: Antalgic action, acetic acid method according to Koster, Anderson & de Beer; type: in vivo; conditions: 100 mg/kg oral, 30 minutes prior to i.p. acetic acid
Text: (b) Acetic acid method, according to Koster, Anderson & de Beer (Fed. Proced., 18, 1959, 412, 1, 626)
Intraperitoneal injection of a dilute acetic acid solution induces, in mice, characteristic writhing movements which are repeated due to the effect of pain.

[6] = test system: collagen-induced blood-platelet aggregation; experiment: Collagen-induced blood-platelet aggregation after oral treatment of rats; type: in vivo, Wistar rats; conditions: Rattus norvegicus, 100 mg/kg oral, 3 hrs after treatment, collagen (bovine tendon extract), read-out: Percent inhibition of blood-platelet aggregation, Collagen
Experimental: as §1, §2
The A.D.P. solution is substituted with a collagen solution (bovine tendon extract).
as §3

Compound | inhibition at 100 mg/kg [1] | Percent decrease of the edema reaction After 2 hours [2] | Percent decrease of the edema reaction After 3 hours [2] | mean percent antalgia after 30 min. [3] | mean percent antalgia after 1 hr [3] | mean percent antalgia after 2 hrs [3] | mean percent antalgia after 3 hrs [3] | Percent anti-inflammatory activity after 1 hour [4] | Percent anti-inflammatory activity after 2 hours [4] | Percent anti-inflammatory activity After 3 hours [4] | percent antalgia [5] | inhibition at 100 mg/kg [6]
O=C1c2ccsc2CCN1Cc1ccccc1 [Derivative n°2, 4-Oxo-5-benzyl-4,5,6,7-tetrahydro-thieno[3,2-c]pyridine] | 61.5% | 42% | 50% | 71% | 65% | 58% | 51% | 36% | 47% | 53% | 68% | 91.2%
CC(=O)N1CCc2sccc2C1=O [Derivative n°5, 4-Oxo-5-acetyl-4,5,6,7-tetrahydro-thieno[3,2-c]pyridine] | 63.2% | 38% | 47% | 66% | 60% | 54% | 48% | 39% | 51% | 55% | 64% | 92.6%
O=C1NCCc2sccc21 [Derivative n°7, 4-Oxo-4,5,6,7-tetrahydro-thieno[3,2-c]pyridine] | 62.3% | 51% | 63% | 78% | 76% | 72% | 64% | 44% | 55% | 63% | 75% | 92.6%
COc1cc(COC(=O)C2Cc3sccc3C(=O)N2Cc2cc(OC)c(OC)c(OC)c2)cc(OC)c1OC (stereo not drawn) [Derivative n°15, 4-Oxo-6-(3,4,5-trimethoxy-benzyloxycarbonyl)-5-(3,4,5-trimethoxybenzyl)-4,5,6,7-tetrahydro-thieno[3,2-c]pyridine] | 61.8% | 48% | 58% | 73% | 67% | 63% | 56% | 40% | 52% | 57% | 69% | 91.6%
